Results on 19 molecules are retold here after patent publication US5888998A, “2-oxo-1-azetidine sulfonic acid derivatives as potent β-lactamase inhibitors” (Synphar Laboratories, Inc., priority 1997, dated 1999).

Where a name gives a salt, the structure may show the parent alone.

For experiment [1], the target named is T1, cephalosporinase (Pseudomonas aeruginosa, UniProt P24735).
T1 construct: nitrocefin as substrate; purification not described
In words: β-lactamase inhibitory activity, spectrophotometric rate assay with nitrocefin as substrate. Type of experiment: biochemical, P. aeruginosa 46012. An excerpt:
As already said, the oxyimino fragment i.e., =N--OR2 in the formula (I) in its `anti` orientation provides excellent synergy with a β-lactam antibiotic against class C β-lactamase (cephalosporinase) producing microorganisms, P. aeruginosa, in particular. Thus this invention includes only those compounds having the formula (I) in which the oxyimino group (=N--OR2) is specifically in the `anti` orientation as shown in (I). Furthermore, the inhibitory activity against the isolated β-lactamase (e.g., cephalosporinase from P. aeruginosa 46012) and the synergy with a β-lactam antibiotic is greatly influenced by the nature of the heterocyclic ring represented by R1 and the nature of the substituent in the oxime fragment represented by R2.
The inhibitory activities of present compounds (β-lactamase inhibitors) against cephalosporinase was measured by spectrophotometric rate assay using […] and using nitrocefin as a substrate (J. Antimicrob. Chemother., vol. 28, pp 775-776, 1991).

Experiment [2] concerns β-lactamase. Particulars: cited from earlier work.
Experiment [3] has as its system E. cloacae 40054. In words: MIC of ceftazidime, microbroth dilution. Particulars: Enterobacter cloacae, 40054, 18 h, read-out: MIC of ceftazidime alone. Format: cell-based. The procedure:
(§1) After incubation in Mueller-Hinton Broth (Difco) at 37° C. for 18 h, the bacterial suspension was diluted and about 10^5 CFU/ml was applied to the drug-containing Mueller-Hinton Broth in each well of 96 well plate. The MICs were recorded after 18 h of incubation at 37° C. on the lowest combinations of drug that inhibited visible growth of bacteria.
On the technique in general: Dilution methods test growth across graded concentrations, often in twofold steps.

Experiment [4] relates to E. cloacae MNH-2. In words: MIC of ceftazidime, microbroth dilution. Type of experiment: cell-based. Particulars: Enterobacter cloacae, MNH2, 18 h, read-out: MIC of ceftazidime alone. The procedure:
as §1

For experiment [5], the system named is E. cloacae P99. In words: microbe, parasite or virus in culture. Type of experiment: cell-based. Particulars: Enterobacter cloacae, P99, 18 h, read-out: MIC of ceftazidime alone. The procedure: as §1
Experiment [6] relates to E. aerogenes 41006. In words: MIC of ceftazidime, microbroth dilution. Format: cell-based. Particulars: Klebsiella aerogenes, 41006, 18 h, read-out: MIC of ceftazidime alone. The procedure: (§2) […]. After incubation in Mueller-Hinton Broth (Difco) at 37° C. for 18 h, the bacterial suspension was diluted and about 10^5 CFU/ml was applied to the drug-containing Mueller-Hinton Broth in each well of 96 well plate. The MICs were recorded after 18 h of incubation at 37° C. on the lowest combinations of drug that inhibited visible growth of bacteria.

For experiment [7], the system named is E. aerogenes S-95. The experiment can be described thus: MIC of ceftazidime, microbroth dilution. Type of experiment: cell-based. The note with it: Klebsiella aerogenes, S95, 18 h, read-out: MIC of ceftazidime alone. The procedure:
as §2

Experiment [8] has as its system M. morganii 36014. The experiment can be described thus: MIC of ceftazidime, microbroth dilution. Format: cell-based. Particulars: Morganella morganii, 36014, 18 h, read-out: MIC of ceftazidime alone. On the procedure: as §2
For experiment [9], the system named is M. morganii 36030. In words: MIC of ceftazidime, microbroth dilution. Format: cell-based. The note with it: Morganella morganii, 36030, 18 h, read-out: MIC of ceftazidime alone. On the procedure:
as §2

For experiment [10], the system named is P. aeruginosa 46012 (R). The experiment can be described thus: MIC of ceftazidime, microbroth dilution. Type of experiment: cell-based. Particulars: Pseudomonas aeruginosa, 18 h, read-out: MIC of ceftazidime alone. On the procedure: as §2
Experiment [11] concerns P. aeruginosa 46017. The experiment can be described thus: MIC of ceftazidime, microbroth dilution. Type of experiment: cell-based. Particulars: Pseudomonas aeruginosa, 46017, 18 h, read-out: MIC of ceftazidime alone. On the procedure:
as §2

The test system of experiment [12] is P. aeruginosa 46220 DR-2-1. In words: MIC of ceftazidime, microbroth dilution. Format: cell-based. Particulars: Pseudomonas aeruginosa, 46220DR21, 18 h, read-out: MIC of ceftazidime alone. The procedure: as §2
Experiment [13] relates to P. aeruginosa AU-10. The experiment can be described thus: MIC of ceftazidime, microbroth dilution. Particulars: Pseudomonas aeruginosa, AU10, 18 h, read-out: MIC of ceftazidime alone. Format: cell-based. On the procedure:
as §2

For experiment [14], the system named is P. aeruginosa AU-1. In words: MIC of ceftazidime, microbroth dilution. Type of experiment: cell-based. Particulars: Pseudomonas aeruginosa, AU1, 18 h, read-out: MIC of ceftazidime alone. On the procedure:
as §2

For experiment [15], the system named is P. aeruginosa AU-5. The experiment can be described thus: MIC of ceftazidime, microbroth dilution. The note with it: Pseudomonas aeruginosa, AU5, 18 h, read-out: MIC of ceftazidime alone. Type of experiment: cell-based. The procedure: as §2
Experiment [16] relates to P. aeruginosa AU-7. The experiment can be described thus: MIC of ceftazidime, microbroth dilution. Type of experiment: cell-based. The note with it: Pseudomonas aeruginosa, AU7, 18 h, read-out: MIC of ceftazidime alone. The procedure: as §2
Experiment [17] has as its system P. aeruginosa AU-8. In words: MIC of ceftazidime, microbroth dilution. Particulars: Pseudomonas aeruginosa, AU8, 18 h, read-out: MIC of ceftazidime alone. Type of experiment: cell-based. The procedure: as §2
Experiment [18] has as its system P. aeruginosa CT-122. The experiment can be described thus: MIC of ceftazidime, microbroth dilution. Type of experiment: cell-based. Particulars: Pseudomonas aeruginosa, CT122, 18 h, read-out: MIC of ceftazidime alone. On the procedure:
as §2

Experiment [19] concerns P. aeruginosa CT-137. In words: MIC of ceftazidime, microbroth dilution. Format: cell-based. The note with it: Pseudomonas aeruginosa, CT137, 18 h, read-out: MIC of ceftazidime alone. The procedure: as §2
The subject of experiment [20] is P. aeruginosa CT-144. In words: MIC of ceftazidime, microbroth dilution. Format: cell-based. The note with it: Pseudomonas aeruginosa, CT144, 18 h, read-out: MIC of ceftazidime alone. The procedure:
as §2

In experiment [21] the test system is P. aeruginosa L46004. The experiment can be described thus: MIC of ceftazidime, microbroth dilution. Type of experiment: cell-based. Particulars: Pseudomonas aeruginosa, L46004, 18 h, read-out: MIC of ceftazidime alone. On the procedure: as §2
Experiment [22] concerns P. aeruginosa M 1405. The experiment can be described thus: MIC of ceftazidime, microbroth dilution. Format: cell-based. Particulars: Pseudomonas aeruginosa, M1405, 18 h, read-out: MIC of ceftazidime alone. On the procedure:
as §2

The test system of experiment [23] is P. aeruginosa M 2297. In words: MIC of ceftazidime, microbroth dilution. The note with it: Pseudomonas aeruginosa, M2297, 18 h, read-out: MIC of ceftazidime alone. Format: cell-based. The procedure: as §2
Experiment [24] has as its system P. aeruginosa PAO 303 carb-4. The experiment can be described thus: MIC of ceftazidime, microbroth dilution. Format: cell-based. The note with it: Pseudomonas aeruginosa, PAO303CARB4, 18 h, read-out: MIC of ceftazidime alone. The procedure: as §2
Experiment [25] deals with P. aeruginosa sp 2439 Wt. In words: MIC of ceftazidime, microbroth dilution. Type of experiment: cell-based. The note with it: Pseudomonas aeruginosa, SP2439WT., 18 h, read-out: MIC of ceftazidime alone. The procedure: as §2
Experiment [26] has as its system P. fluorescens sp 5953. The experiment can be described thus: MIC of ceftazidime, microbroth dilution. Type of experiment: cell-based. Particulars: Pseudomonas fluorescens, SP5953, 18 h, read-out: MIC of ceftazidime alone. On the procedure: as §2
The subject of experiment [27] is P. aeruginosa 46220 DR-2. In words: MIC of ceftazidime, microbroth dilution. The note with it: Pseudomonas aeruginosa, 46220DR2, alone, 18 h, 37° C. Type of experiment: cell-based. On the procedure:
as §1, with “The MICs of the antibiotics (ceftazidime) alone, the MICs of ceftazidime in combination with reference compounds particularly aztreonam (ref. compd. I) and the MICs of the β-lactamase inhibitors (10 μg/ml) of the present invention in combination with ceftazidime were determined with the same β-lactamase producing bacteria. After” for “After”

T1 sequence (P24735 27-397): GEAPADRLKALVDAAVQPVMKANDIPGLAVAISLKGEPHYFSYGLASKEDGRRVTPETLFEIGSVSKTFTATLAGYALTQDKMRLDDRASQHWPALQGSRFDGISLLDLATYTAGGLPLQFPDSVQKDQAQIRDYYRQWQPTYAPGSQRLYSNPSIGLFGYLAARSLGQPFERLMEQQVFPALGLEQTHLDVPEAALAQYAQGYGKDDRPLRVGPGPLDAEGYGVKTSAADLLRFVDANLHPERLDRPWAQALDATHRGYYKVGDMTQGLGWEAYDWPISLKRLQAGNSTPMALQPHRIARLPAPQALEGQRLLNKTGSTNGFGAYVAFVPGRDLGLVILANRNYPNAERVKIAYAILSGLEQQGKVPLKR

For the molecule `C[C@H]1[C@H](NC(=O)/C(=N/OCc2cc(=O)c(O)cn2O)c2cccs2)C(=O)N1S(=O)(=O)O` [Compound 1, (3S)-trans-3-[(E)-2-(2-thienyl)-2-{(1,5-dihydroxy-4-pyridon-2-ylmethoxy)imino}acetamido]-4-methyl-2-oxoazetidine-1-sulfonic acid], the IC50 (as a rule, the concentration needed to halve the response being measured) in experiment [1] is 60 nM.

As to `C[C@H]1[C@H](NC(=O)/C(=N/OCc2cc(=O)c(O)cn2O)c2cccs2)C(=O)N1S(=O)(=O)O` [Compound 2], in experiment [1], the concentration for half-maximal inhibition (IC50) was determined as 40 nM.

On to `C[C@H]1[C@H](NC(=O)/C(=N/OCc2cc(=O)c(O)cn2O)c2cccs2)C(=O)N1S(=O)(=O)O` [Compound 3], for which the IC50 in [1] was 10 nM.

Consider `CC(O/N=C(/C(=O)N[C@@H]1C(=O)N(S(=O)(=O)O)[C@H]1C)c1cccs1)c1cc(=O)c(O)cn1O` (some centres unmarked) [Compound 4], for which, in [1], the IC50 came out at 60 nM.

For `C=CCC(O/N=C(/C(=O)N[C@@H]1C(=O)N(S(=O)(=O)O)[C@H]1C)c1cccs1)c1cc(=O)c(O)cn1O` (some centres unmarked) [Compound 5], the IC50 in experiment [1] is 50 nM.

Take `C[C@H]1[C@H](NC(=O)/C(=N/OC(c2ccc(F)cc2)c2cc(=O)c(O)cn2O)c2cccs2)C(=O)N1S(=O)(=O)O` (some centres unmarked) [Compound 6]: the IC50 in [1] stood at 100 nM.

Regarding `C[C@H]1[C@H](NC(=O)/C(=N/OCCSCc2cc(=O)c(O)cn2O)c2cccs2)C(=O)N1S(=O)(=O)O` [Compound 7], the IC50 in experiment [1] was found to be 60 nM.

In the case of `C[C@H]1[C@H](NC(=O)/C(=N/OCCNC(=O)/C(=N\OCc2cc(=O)c(O)cn2O)c2cccs2)c2cccs2)C(=O)N1S(=O)(=O)O` [Compound 9], in [1], the IC50 is 6 nM.

Take `C[C@H]1[C@H](NC(=O)/C(=N/OCCNC(=O)/C(=N/OCc2cc(=O)c(O)cn2O)c2cccs2)c2cccs2)C(=O)N1S(=O)(=O)O` [Compound 10]: the IC50 in experiment [1] turned out to be 1 nM.

Regarding `C/C(=N/OCc1cc(=O)c(O)cn1O)C(=O)NCCO/N=C(/C(=O)N[C@@H]1C(=O)N(S(=O)(=O)O)[C@H]1C)c1cccs1` [Compound 11], the IC50 in [1] amounted to 50 nM.

On to `C[C@H]1[C@H](NC(=O)/C(=N/OCCNC(=O)/C(=N\OCc2cc(=O)c(O)cn2O)c2csc(N)n2)c2cccs2)C(=O)N1S(=O)(=O)O` [Compound 12], for which, in [1], the IC50 was 6 nM.

In the case of `C[C@H]1[C@H](NC(=O)/C(=N/OCCNC(=O)c2cc(=O)c(O)c[nH]2)c2cccs2)C(=O)N1S(=O)(=O)O` [Compound 13], the IC50 in experiment [1] amounted to 10 nM.

Take `C[C@H]1[C@H](NC(=O)/C(=N/OCc2cc(=O)c(O)c[nH]2)c2cccs2)C(=O)N1S(=O)(=O)O` [Compound 14, (3S)-trans-3-[(E)-2-(2-thienyl)-2{(5-hydroxy-4-pyridon-2-ylmethoxy)imino}acetamido]-4-methyl-2-oxoazetidine-1-sulfonic acid, potassium salt]: the IC50 in [1] amounted to 40 nM.

As for `C[C@H]1[C@H](NC(=O)/C(=N/OCc2cc(=O)c(O)cn2O)c2cccn2C)C(=O)N1S(=O)(=O)O` [Compound 15], in [1], the IC50 was found to be 900 nM.

On to `C[C@H]1[C@H](NC(=O)/C(=N/OCC(N)COC(=O)/C(=N\OCc2cc(=O)c(O)cn2O)c2cccs2)c2cccs2)C(=O)N1S(=O)(=O)O` (some centres unmarked) [Compound 16], for which the IC50 in experiment [1] amounted to 4.5 nM.

With `C[C@H]1[C@H](NC(=O)/C(=N\OC(C)(C)C(=O)O)c2csc(N)n2)C(=O)N1S(=O)(=O)O` [Ref. compd. I, Aztreonam], the IC50 in experiment [1] was 130 nM. The β-lactamase inhibitory properties entry in experiment [2] is reported as “possesses β-lactamase inhibitory properties”.

As to `C[C@H]1[C@H](NC(=O)/C(=N\OCc2cc(=O)c(O)cn2O)c2cccs2)C(=O)N1S(=O)(=O)O` [Ref. compd. III], the IC50 in [1] amounted to 40 nM.

Consider `C[C@H]1[C@H](NC(=O)/C(=N/OC(C)(C)C(=O)O)c2csc(N)n2)C(=O)N1S(=O)(=O)O` [Ref. compd. II], for which, in experiment [1], the IC50 amounted to 2000 nM.

As to `CC(C)(O/N=C(\C(=O)N[C@@H]1C(=O)N2C(C(=O)[O-])=C(C[n+]3ccccc3)CS[C@H]12)c1csc(N)n1)C(=O)O` [ceftazidime], the MIC in experiment [3] was > 32 µg/mL; in experiment [4], > 32 µg/mL; in [5], > 32 µg/mL; in experiment [6], > 32 µg/mL; in experiment [7], > 32 µg/mL; in experiment [8], 32 µg/mL. For the same molecule, the MIC in experiment [9] was > 32 µg/mL; in [10], > 32 µg/mL; in experiment [11], > 32 µg/mL; in experiment [12], > 32 µg/mL; in [13], 32 µg/mL; in experiment [14], > 32 µg/mL. Also, the MIC was > 32 µg/mL in [15]; > 32 µg/mL in experiment [16]; > 32 µg/mL in [17]; 32 µg/mL in [18]; 16 µg/mL in [19]; > 32 µg/mL in [20]. For the same molecule, the MIC in [21] is > 32 µg/mL; in experiment [22], > 32 µg/mL; in [23] it was > 32 µg/mL; in experiment [24], 32 µg/mL; in experiment [25] it was > 32 µg/mL; in experiment [26], > 32 µg/mL. The MIC in [27] worked out at 32 µg/mL.
